# Measured values: PubChem BioAssay AID1963427 (Molecular Pharmacology Branch, DTP, NCI, 2024)
# Several values for one entry are separate records, joined by “and”; a condition that tells them apart may be missing. Equal values may be shown once.
# Tested on: 317291-083-R-J1-PDC complex spheroid growth
# Test: Anticancer human tumor 317291-083-R-J1-PDC patient-derived soft tissue sarcoma cell line growth inhibition [Asc]
# Conditions: for viability, T/C: stronger effect = lower value
# Method in brief: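 Complex spheroids combining tumor cells with HUVEC endothelial cells and human MSCs, at 37 degrees C, 5% CO2; agents tested alone or combined, half-log dilutions from at or near clinical Cmax, or 10 microM if Cmax unknown.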
# 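Also: compound exposure lasted seven days after spheroids formed for three days.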
# 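For viability, T/C in this document: 100% = DMSO vehicle control wells.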
structure (smiles),measurement,setting,value
O=C(c1ccc(F)c(F)c1Nc1ccc(I)cc1F)N1CC(O)([C@@H]2CCCCN2)C1 + Cc1c(S(C)(=O)=O)c(-c2cc(F)cc(N3CCN(c4ccc(NS(=O)(=O)c5ccc(NC(CCN6CCC(C(=O)OCCCP(=O)(O)O)CC6)CSc6ccccc6)c(S(=O)(=O)C(F)(F)F)c5)cc4)CC3)c2)c(-c2ccc(Cl)cc2)n1C(C)C,IC50,"curve of first compound, second compound 0.0316 µM",419 nM
same,IC50,"curve of first compound, second compound 0.1 µM",344 nM
same,IC50,"curve of first compound, second compound 0.316 µM",291 nM
same,IC50,"curve of first compound, second compound 1 µM",443 nM
same,IC50,"curve of first compound, second compound 3.16 µM",322 nM
same,IC50,"curve of first compound, second compound 10 µM",319 nM
same,"viability, T/C","second compound 0.0316 µM, first compound 0.00316 µM",98.2%
same,"viability, T/C","second compound 0.0316 µM, first compound 0.01 µM",96.5%
same,"viability, T/C","second compound 0.0316 µM, first compound 0.0316 µM",99.2%
same,"viability, T/C","second compound 0.0316 µM, first compound 0.1 µM",97.7%
same,"viability, T/C","second compound 0.0316 µM, first compound 0.316 µM",60.5%
same,"viability, T/C","second compound 0.0316 µM, first compound 1 µM",17.5%
same,"viability, T/C","second compound 0.1 µM, first compound 0.00316 µM",85.2%
same,"viability, T/C","second compound 0.1 µM, first compound 0.01 µM",81.6%
same,"viability, T/C","second compound 0.1 µM, first compound 0.0316 µM",72.2%
same,"viability, T/C","second compound 0.1 µM, first compound 0.1 µM",111%
same,"viability, T/C","second compound 0.1 µM, first compound 0.316 µM",52.9%
same,"viability, T/C","second compound 0.1 µM, first compound 1 µM",13.2%
same,"viability, T/C","second compound 0.316 µM, first compound 0.00316 µM",85%
same,"viability, T/C","second compound 0.316 µM, first compound 0.01 µM",76.7%
same,"viability, T/C","second compound 0.316 µM, first compound 0.0316 µM",75.3%
same,"viability, T/C","second compound 0.316 µM, first compound 0.1 µM",103%
same,"viability, T/C","second compound 0.316 µM, first compound 0.316 µM",47.4%
same,"viability, T/C","second compound 0.316 µM, first compound 1 µM",10.6%
same,"viability, T/C","second compound 1 µM, first compound 0.00316 µM",76.7%
same,"viability, T/C","second compound 1 µM, first compound 0.01 µM",85.5%
same,"viability, T/C","second compound 1 µM, first compound 0.0316 µM",72.6%
same,"viability, T/C","second compound 1 µM, first compound 0.1 µM",73%
same,"viability, T/C","second compound 1 µM, first compound 0.316 µM",67.3%
same,"viability, T/C","second compound 1 µM, first compound 1 µM",11.2%
same,"viability, T/C","second compound 3.16 µM, first compound 0.00316 µM",74.9%
same,"viability, T/C","second compound 3.16 µM, first compound 0.01 µM",72.7%
same,"viability, T/C","second compound 3.16 µM, first compound 0.0316 µM",73%
same,"viability, T/C","second compound 3.16 µM, first compound 0.1 µM",79.4%
same,"viability, T/C","second compound 3.16 µM, first compound 0.316 µM",50.7%
same,"viability, T/C","second compound 3.16 µM, first compound 1 µM",9.52%
same,"viability, T/C","second compound 10 µM, first compound 0.00316 µM",76.9%
same,"viability, T/C","second compound 10 µM, first compound 0.01 µM",92%
same,"viability, T/C","second compound 10 µM, first compound 0.0316 µM",73%
same,"viability, T/C","second compound 10 µM, first compound 0.1 µM",97.9%
same,"viability, T/C","second compound 10 µM, first compound 0.316 µM",50.2%
same,"viability, T/C","second compound 10 µM, first compound 1 µM",16.8%
COc1c(OCCCN2CCOCC2)ccc2c3n(c(=NC(=O)c4cnc(N)nc4)nc12)CCN3,"viability, T/C",compound 0.00316 µM,92% and 97.6% and 96.2%
same,"viability, T/C",compound 0.01 µM,90.5% and 100% and 93.7%
same,"viability, T/C",compound 0.0316 µM,73.5% and 93.8% and 80.6%
same,"viability, T/C",compound 0.1 µM,49.4% and 56.9% and 59.9%
same,"viability, T/C",compound 0.316 µM,25.9% and 37.9% and 33.4%
same,"viability, T/C",compound 1 µM,12.6% and 21.9% and 15.6%
same,IC50,curve of compound,149 nM and 158 nM and 103 nM
Cc1nc(N2CCC3(CC2)COC(C)C3N)c(CO)nc1Sc1ccnc(N)c1Cl (stereo not drawn),"viability, T/C",compound 0.00949 µM,108% and 113% and 102%
same,"viability, T/C",compound 0.03 µM,83.1% and 90.6% and 95.5%
same,"viability, T/C",compound 0.0949 µM,79.3% and 103% and 99.2%
same,"viability, T/C",compound 0.3 µM,73.6% and 89.4% and 77.2%
same,"viability, T/C",compound 0.949 µM,59.2% and 66.4% and 64.5%
same,"viability, T/C",compound 3 µM,43.2% and 58.9% and 51%
same,IC50,curve of compound,2000 nM and > 3000 nM
CNC(C)C(=O)NC1CN(S(=O)(=O)c2cccc(S(=O)(=O)N3CCC4CCC(C(=O)NC(c5ccccc5)c5ccccc5)N4C(=O)C(NC(=O)C(C)NC)C3)c2)CCC2CCC(C(=O)NC(c3ccccc3)c3ccccc3)N2C1=O (stereo not drawn) + CCN1C(C(=O)NC23CCC(C(=O)O)(CC2)CC3)C(c2cccc(Cl)c2F)C2(C(=O)Nc3cc(Cl)ccc32)C12CCCCC2,IC50,"curve of first compound, second compound 0.00949 µM",253 nM
same,IC50,"curve of first compound, second compound 0.03 µM",517 nM
same,IC50,"curve of first compound, second compound 0.0949 µM",313 nM
same,IC50,"curve of first compound, second compound 0.3 µM",459 nM
same,IC50,"curve of first compound, second compound 0.949 µM",> 1000 nM
same,IC50,"curve of first compound, second compound 3 µM",75.2 nM
same,"viability, T/C","second compound 0.00949 µM, first compound 0.00316 µM",96.9%
same,"viability, T/C","second compound 0.00949 µM, first compound 0.01 µM",86%
same,"viability, T/C","second compound 0.00949 µM, first compound 0.0316 µM",71.7%
same,"viability, T/C","second compound 0.00949 µM, first compound 0.1 µM",61.3%
same,"viability, T/C","second compound 0.00949 µM, first compound 0.316 µM",49.5%
same,"viability, T/C","second compound 0.00949 µM, first compound 1 µM",32.1%
same,"viability, T/C","second compound 0.03 µM, first compound 0.00316 µM",81.3%
same,"viability, T/C","second compound 0.03 µM, first compound 0.01 µM",87.8%
same,"viability, T/C","second compound 0.03 µM, first compound 0.0316 µM",72.5%
same,"viability, T/C","second compound 0.03 µM, first compound 0.1 µM",65.2%
same,"viability, T/C","second compound 0.03 µM, first compound 0.316 µM",50.9%
same,"viability, T/C","second compound 0.03 µM, first compound 1 µM",47.7%
same,"viability, T/C","second compound 0.0949 µM, first compound 0.00316 µM",108%
same,"viability, T/C","second compound 0.0949 µM, first compound 0.01 µM",101%
same,"viability, T/C","second compound 0.0949 µM, first compound 0.0316 µM",79.1%
same,"viability, T/C","second compound 0.0949 µM, first compound 0.1 µM",67.4%
same,"viability, T/C","second compound 0.0949 µM, first compound 0.316 µM",49.1%
same,"viability, T/C","second compound 0.0949 µM, first compound 1 µM",39.2%
same,"viability, T/C","second compound 0.3 µM, first compound 0.00316 µM",98.7%
same,"viability, T/C","second compound 0.3 µM, first compound 0.01 µM",71.4%
same,"viability, T/C","second compound 0.3 µM, first compound 0.0316 µM",70.9%
same,"viability, T/C","second compound 0.3 µM, first compound 0.1 µM",68.7%
same,"viability, T/C","second compound 0.3 µM, first compound 0.316 µM",54.5%
same,"viability, T/C","second compound 0.3 µM, first compound 1 µM",41.1%
same,"viability, T/C","second compound 0.949 µM, first compound 0.00316 µM",90.1%
same,"viability, T/C","second compound 0.949 µM, first compound 0.01 µM",66.4%
same,"viability, T/C","second compound 0.949 µM, first compound 0.0316 µM",64.1%
same,"viability, T/C","second compound 0.949 µM, first compound 0.1 µM",62.4%
same,"viability, T/C","second compound 0.949 µM, first compound 0.316 µM",38.9%
same,"viability, T/C","second compound 0.949 µM, first compound 1 µM",63.8%
same,"viability, T/C","second compound 3 µM, first compound 0.00316 µM",64.4%
same,"viability, T/C","second compound 3 µM, first compound 0.01 µM",66.1%
same,"viability, T/C","second compound 3 µM, first compound 0.0316 µM",59%
same,"viability, T/C","second compound 3 µM, first compound 0.1 µM",47.7%
same,"viability, T/C","second compound 3 µM, first compound 0.316 µM",34.6%
same,"viability, T/C","second compound 3 µM, first compound 1 µM",35.4%
